Laboratory results from the METLIN SMRT retention time set (Domingo-Almenara et al. 2019).

Experiment: gradient 5% acetonitrile 3 min, to 50% in 2 min, to 85% in 15 min, held 3 min, 100 µL/min
Conditions: column: Zorbax Extend-C18 2.1 x 50 mm; eluents: water / acetonitrile, 0.1% formic acid
In short: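 A Zorbax Extend-C18 column (2.1 × 50 mm, 1.8 μm) run at 100 μL/min with water and acetonitrile, both containing 0.1% formic acid, separated mixtures of ~100 pure standards. The HPLC was coupled to a quadrupole time-of-flight mass spectrometer operated in positive and negative ionization mode, with dead and dwell volumes of 40 μL and 900 μL. Each retention time was taken from a computationally picked adduct peak that was then manually inspected.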

`COc1cccc(NC(=O)C2CCN(S(=O)(=O)c3cc(C(=O)N(C)C)cs3)CC2)c1` gave an RP-LC retention time of 760 s.

`O=C(NCc1ccccc1F)c1ccc2c(c1)CN(Cc1cccs1)CCO2` gave an RP-LC retention time of 759 s.

Work on `O=C(NCC1CCCO1)c1cc(S(=O)(=O)N2CCCCCC2)ccc1Cl` (centres undefined) yielded an RP-LC retention time of 842 s.

For `Cn1ncc2c(N3CCN(c4ccc(F)cc4)CC3)ncnc21`, the RP-LC retention time was 802 s.

In the case of `Cc1c(Cl)cccc1N1C(=O)CN(S(C)(=O)=O)CC1(C)C(=O)NC1CCCCC1` (centres undefined), the RP-LC retention time is reported as 892 s.

`CC(C)(C)c1ccc(S(=O)(=O)Nc2cccc(C(=O)O)c2)cc1` gave an RP-LC retention time of 810 s.

Compound `Cc1nc2cc(N3CCCC(C(=O)N4CCCCCC4)C3)cnc2nc1C` (centres undefined) has an RP-LC retention time of 653 s.

With `COc1ccc(C2(C(=O)Nc3cc(-c4ccco4)no3)CC2)cc1` the RP-LC retention time was 1000 s.

In the case of `COc1ccc(-c2c(C)noc2NC(C)=O)cc1S(=O)(=O)N1CC=C(c2ccccc2)CC1`, the RP-LC retention time is reported as 879 s.

`COc1ccc(NC(=O)Cn2c(=O)cc(-c3nc(C(C)C)no3)c3ccccc32)cc1` gave an RP-LC retention time of 938 s.

For `CCCCN(CC(=O)N1CCNCC1)C(=O)c1ccc(Br)cc1`, the RP-LC retention time was 589 s.

`O=C1NC2(CCN(C(=O)Nc3cccc(F)c3)CC2)Oc2ccccc21` gave an RP-LC retention time of 743 s.

`C#CCOCC1CCCN(S(=O)(=O)c2cc(C)c(Cl)cc2Cl)C1` (centres undefined) gave an RP-LC retention time of 1130 s.

For `CCOc1ccc(NS(=O)(=O)c2c(C)sc(C)c2-c2cc(C(F)(F)F)on2)cc1`, the RP-LC retention time was 1220 s.

With `CCn1c(=O)sc2cc(S(=O)(=O)N3CCC(C(=O)Nc4ccc(F)c(F)c4)CC3)ccc21` the RP-LC retention time was 955 s.

`CCOc1cccc(CNc2nc3ccncc3n(C(C)C)c2=O)c1` showed an RP-LC retention time of 687 s.

With `CCOC(=O)C1CCN(S(=O)(=O)c2cccc(-c3cn4ccccc4n3)c2)CC1` the RP-LC retention time was 676 s.

Work on `CCOc1cc(=O)n2c(c1C(=O)Nc1ccc(F)cc1F)CCCC2` yielded an RP-LC retention time of 726 s.

With `O=C(CCSc1nnnn1-c1ccccc1)Nc1ccc2c(c1)OCO2` the RP-LC retention time was 794 s.

With `CCn1cc(-c2ccc(Cl)cc2)cc1C(=O)N1CCOCC1` the RP-LC retention time was 953 s.

With `COc1ccc(-c2nc(-c3ccc4c(c3)ncn4CCC(=O)N3CCCC3)no2)cc1` the RP-LC retention time was 742 s.

Work on `CCc1noc(-c2ccnc(-n3ncc(C(=O)NC4CCCC4)c3C)c2)n1` yielded an RP-LC retention time of 687 s.

`O=C(NCc1nnc(SC/C=C/c2ccccc2)o1)c1ccccc1` gave an RP-LC retention time of 824 s.

In the case of `Cc1ccc(NC(=O)C2CC(=O)N(c3cccc(NC(=O)C4CCC4)c3)C2)cc1Cl` (centres undefined), the RP-LC retention time is reported as 914 s.

`COC(=O)CSCC(=O)Nc1cc(C)ccc1C` showed an RP-LC retention time of 729 s.

Compound `COc1ccc(S(=O)(=O)N2CCCOC2CNC(=O)C(=O)NC2CCCCC2)cc1` (centres undefined) has an RP-LC retention time of 822 s.

`CCC1CN(C(=O)N2CCC(C(=O)NCCN3CCCC3)CC2)c2cc(C)ccc2O1` (centres undefined) showed an RP-LC retention time of 649 s.

`COc1ccc(N2CCN(c3cc(SCC(=O)Nc4ccc(C)c(F)c4)ncn3)CC2)cc1` gave an RP-LC retention time of 1030 s.

`COc1cc(NC(=O)c2noc3c2CCCC3)cc(OC)c1OC` showed an RP-LC retention time of 876 s.

In the case of `CCc1cc(=O)n(CC(=O)NCc2cccs2)c(-c2ccccc2)n1`, the RP-LC retention time is reported as 1040 s.

In the case of `COC(=O)c1c(-c2cccc(Cl)c2)noc1NCc1ccccn1`, the RP-LC retention time is reported as 897 s.

For `Cc1ccc(C(=O)N2CCC3(CC2)NC(=O)c2ccc(F)cc2N3C)cc1`, the RP-LC retention time was 763 s.

Compound `CCC(=O)Nc1cccc(-c2nnc3n2CCC3)c1` has an RP-LC retention time of 588 s.

`O=C1COc2ccc(S(=O)(=O)N3CCC(C(=O)Nc4ccc(C(F)(F)F)cc4)CC3)cc2N1` showed an RP-LC retention time of 803 s.

For `O=C(OCC12CC3CC(CC(C3)C1)C2)c1ccc(NCc2cc(O)ccc2O)cc1`, the RP-LC retention time was 1080 s.

Compound `CCOc1ccc2ncc(S(=O)(=O)c3ccc(C)c(C)c3)c(N3CCN(CC)CC3)c2c1` has an RP-LC retention time of 693 s.

`Cc1cc(=O)n(CC(=O)Nc2ccc3c(c2)OCCO3)c(N2CCc3ccccc3C2)n1` gave an RP-LC retention time of 732 s.

In the case of `O=C(Cn1nc(N2CCCCCC2)c2ccccc2c1=O)Nc1cccc(Cl)c1`, the RP-LC retention time is reported as 1180 s.

Work on `CNC(=O)c1ccc(-c2nc3cc(NS(=O)(=O)c4cc(F)ccc4C)ccc3n2C)cc1` yielded an RP-LC retention time of 832 s.

Work on `CCc1noc(NC(C)=O)c1-c1ccc(OC)c(S(=O)(=O)Nc2cccc(OC)c2)c1` yielded an RP-LC retention time of 754 s.

`O=S(=O)(NCC(O)(c1ccccc1)C(F)(F)F)c1cc(F)ccc1F` (centres undefined) showed an RP-LC retention time of 870 s.

With `CCCNC(=O)CCNc1c(-c2ccc(F)cc2)nc2cnccn12` the RP-LC retention time was 648 s.

In the case of `Cc1ccc(CNC(=O)C(C)n2nc(C)c3nn(-c4ccccc4)c(C)c3c2=O)o1` (centres undefined), the RP-LC retention time is reported as 807 s.

`CCCCn1nnc(NCc2ccc(-c3cc(Cl)ccc3Cl)o2)n1` showed an RP-LC retention time of 1220 s.

Compound `COc1ccc(-c2nc3cccc(C)n3c2Nc2ccc3c(c2)OCCO3)cc1` has an RP-LC retention time of 987 s.

`C[C@]12CCC3[C@@H](CC[C@@H]4C[C@H](O)CC[C@]34C)[C@@H]1CCC2=O` (some centres undefined) gave an RP-LC retention time of 992 s.

In the case of `Cc1cc(N2CCN(C)CC2)nc2ccc(NC(=O)Nc3ccc(Br)cc3)cc12`, the RP-LC retention time is reported as 609 s.

`CC(C)NC(=O)c1ccc(OCC2CCCN(C(=O)c3ccc(F)c(F)c3)C2)cc1` (centres undefined) showed an RP-LC retention time of 869 s.

`CCOc1ccccc1CNC(=O)Cc1cn(C)c2ncccc12` showed an RP-LC retention time of 739 s.

Work on `Cc1ccccc1-c1nnc(CSc2ccc(N)cc2)o1` yielded an RP-LC retention time of 818 s.

With `COc1cccc(CNC(=O)C2(C)CCN(C(=O)Nc3ccc(C)c(Cl)c3)CC2)c1` the RP-LC retention time was 930 s.

In the case of `Cc1ccc(F)cc1NS(=O)(=O)c1ccc(-c2nnc(C3CCC3)o2)o1`, the RP-LC retention time is reported as 931 s.

`Cc1ccc(Nc2c(-c3ccc(O)cc3)nc3ccc(C)cn23)cc1` gave an RP-LC retention time of 721 s.

Compound `COc1ccc(-c2noc(CN3C(=O)COc4ccccc43)n2)c(OC)c1` has an RP-LC retention time of 887 s.

For `CCNCc1cc(C(C)(C)C)c(O)c(C(C)(C)C)c1`, the RP-LC retention time was 753 s.

`Cc1ccc(CN2CCN(CC(=O)Nc3cc(C)cc(C)c3)C(=O)C2=O)cc1` showed an RP-LC retention time of 838 s.

Compound `Cc1ccc(S(=O)(=O)N2CCC(CCNC(=O)NC(C)C)CC2)cc1` has an RP-LC retention time of 796 s.

`Fc1ccccc1-c1nc2ccc(Cl)cn2c1Nc1ccc(Cl)cc1` showed an RP-LC retention time of 909 s.

For `CN(C)C(=O)[C@H](O)[C@H](Cc1ccccc1)NC(=O)c1cc2cc(Cl)ccc2[nH]1`, the RP-LC retention time was 956 s.

Work on `COc1ccc2c(c1)C1(CCN(C(=O)Nc3cccc(C)c3)C1)C(=O)N2C` (centres undefined) yielded an RP-LC retention time of 809 s.

With `CCCNS(=O)(=O)c1cc2c(cc1C)CCN2C(C)=O` the RP-LC retention time was 641 s.

Compound `O=C(NCCc1c[nH]c2ccc(F)cc12)c1cncc(Br)c1` has an RP-LC retention time of 796 s.

`COc1cccc(N2C(=O)C3N=NN(Cc4nc(-c5ccc(C)c(C)c5)no4)C3C2=O)c1` (centres undefined) showed an RP-LC retention time of 1030 s.

Work on `CN(C)S(=O)(=O)N1CCC2(CC1)CN(c1cccc(F)c1)C2c1ccccc1` (centres undefined) yielded an RP-LC retention time of 1250 s.

`Cc1nn(CC(=O)NCCc2c[nH]c3ccc(Cl)cc23)c(=O)c2c(C)n(-c3ccccc3)nc12` gave an RP-LC retention time of 908 s.

`COc1ccc(-c2nnc(COc3cccc(NC(=O)c4ccc(C)s4)c3)o2)cc1` gave an RP-LC retention time of 988 s.

In the case of `Cc1cc(C)c(NC(=O)Cn2nc(N3CCC(C)CC3)c3ccccc3c2=O)c(C)c1`, the RP-LC retention time is reported as 1300 s.

`O=C(c1ccc2nc(-c3ccccc3)cn2c1)N1CCOCC1` gave an RP-LC retention time of 580 s.

For `O=C(c1ccc(OCC2CCCN2C(=O)c2ccc(F)cc2)cc1)N1CCCC1` (centres undefined), the RP-LC retention time was 829 s.

Compound `CC(C)n1nc2c(S(=O)(=O)N3CCOCC3)cccn2c1=O` has an RP-LC retention time of 670 s.

With `O=C(c1ccc(F)c(Cl)c1)N1CCN(c2nc(CN3CCOCC3)cs2)CC1` the RP-LC retention time was 638 s.

For `CC1CCC(NC(=O)c2ccc(Cn3cncn3)cc2)CC1` (centres undefined), the RP-LC retention time was 726 s.

With `Cc1csc(-c2ccc(N3CCN(C(=O)COc4ccc(Cl)cc4)CC3)nc2)n1` the RP-LC retention time was 925 s.

For `CCS(=O)(=O)Nc1cc(-c2nnc(C(C)C)o2)sc1C`, the RP-LC retention time was 863 s.

With `CCn1cnc(S(=O)(=O)N2CCCC(C(=O)Nc3ccc(F)cc3F)C2)c1` (centres undefined) the RP-LC retention time was 742 s.

Work on `O=C(COc1ccc(F)cc1)N1CC(Oc2cccc(-c3nc(-c4ccccc4)no3)c2)C1` yielded an RP-LC retention time of 1190 s.

For `CCOc1ccc(CN2CCN(C(=O)c3ccc(C#N)cc3)CC2)cn1`, the RP-LC retention time was 596 s.

Compound `CCOc1cc2c(cc1OCC)C1C(C(=O)N3CCOCC3)c3ccccc3C(=O)N1CC2` (centres undefined) has an RP-LC retention time of 744 s.

With `CC(=O)Nc1nc(-c2ccc(S(=O)(=O)Nc3ccc(C)cc3)cc2)cs1` the RP-LC retention time was 854 s.

In the case of `COc1ccc(NC(=O)c2c(O)c3cccnc3n(-c3ccccc3)c2=O)cc1OC`, the RP-LC retention time is reported as 800 s.

With `COc1ccc(C2CCCN2C(=O)c2ccnn2C)cc1` (centres undefined) the RP-LC retention time was 722 s.

`CC1CCN(S(=O)(=O)c2ccc(-c3nnc(C(=O)NCC4CCCO4)o3)cc2)CC1` (centres undefined) showed an RP-LC retention time of 865 s.

Work on `Cc1nc2cc(-c3noc(-c4cc(Cl)ccc4F)n3)ccc2o1` yielded an RP-LC retention time of 1150 s.

Compound `Cc1ccn2c(=O)c(NC(=O)c3ccco3)c(C)nc2c1` has an RP-LC retention time of 544 s.

For `Cc1cc(OCC(=O)N2CCC3(O)CCCCC3C2)c2c3c(c(=O)oc2c1)CCC3` (centres undefined), the RP-LC retention time was 803 s.

In the case of `Clc1ccccc1CSc1nnc(-c2ccc(Br)cc2)o1`, the RP-LC retention time is reported as 1400 s.

`O=C(COc1ccccc1F)NCCS(=O)(=O)N1CCN(c2ncccn2)CC1` showed an RP-LC retention time of 716 s.

`COc1ccc(CNC(=O)Cn2c(=O)c3cc(-c4cccs4)nn3c3ncccc32)cc1` gave an RP-LC retention time of 816 s.

`CCOc1ccc(C(=O)NCc2c(C)noc2C)cc1` showed an RP-LC retention time of 733 s.
